From paper PMC11606874, “Structural and in vitro anticancer properties of the kaempferol–lactoferrin complex” (Food Science & Nutrition, 2024) come the findings set out here.

For the assay, the target named is T1, lactoferrin (Bos taurus, UniProt P24627).
T1 construct: gene LTF
In words: intrinsic fluorescence quenching titration (Stern-Volmer and double-logarithmic Ka at […] K), synchronous fluorescence, UV-vis difference spectra. It is filed as binding. The conditions noted are these: read-out: K a (L mol^-1) (converted).

T1 sequence (P24627 20-708): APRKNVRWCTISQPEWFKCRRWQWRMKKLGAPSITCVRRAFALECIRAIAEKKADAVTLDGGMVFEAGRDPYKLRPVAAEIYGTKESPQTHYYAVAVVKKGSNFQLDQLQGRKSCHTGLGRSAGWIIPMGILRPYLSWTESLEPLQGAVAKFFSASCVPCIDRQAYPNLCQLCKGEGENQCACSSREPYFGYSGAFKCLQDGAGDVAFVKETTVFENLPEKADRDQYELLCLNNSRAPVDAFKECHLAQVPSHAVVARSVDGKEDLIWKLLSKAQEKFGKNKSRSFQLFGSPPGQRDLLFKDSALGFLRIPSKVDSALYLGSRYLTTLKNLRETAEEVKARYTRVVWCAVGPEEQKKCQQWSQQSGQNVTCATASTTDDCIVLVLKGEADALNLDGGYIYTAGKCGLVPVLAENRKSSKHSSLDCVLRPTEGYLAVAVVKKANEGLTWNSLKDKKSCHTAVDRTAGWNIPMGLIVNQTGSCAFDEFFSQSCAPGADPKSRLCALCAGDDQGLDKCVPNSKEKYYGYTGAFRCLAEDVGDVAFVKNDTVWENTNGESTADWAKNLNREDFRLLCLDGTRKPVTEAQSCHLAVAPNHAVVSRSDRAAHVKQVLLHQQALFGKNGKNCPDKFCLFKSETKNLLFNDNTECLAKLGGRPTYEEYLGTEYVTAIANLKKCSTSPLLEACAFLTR

As for `O=c1c(O)c(-c2ccc(O)cc2)oc2cc(O)cc(O)c12` [KAE, kaempferol], the Kd was 43.3 µM.
